Data as given in patent US20180221306A1, “PHARMACEUTICAL COMPOSITIONS OF 5-HYDROXY-2-METHYLNAPHTHALENE-1,4-DIONE” (PellFiCure Pharmaceuticals, Inc., priority 2016, published 2018).

Test system: PTEN-P2/H2B-GFP mouse prostate cancer cells
Experiment: IVM pseudo-orthotopic prostate chamber model, tumor size
Description: Male Nude mice (25-35 g body weight) are anesthetized (7.3 mg ketamine hydrochloride and 2.3 mg xylazine/100 g body weight, i.p.) and placed on a heating pad. Two symmetrical titanium frames are implanted into a dorsal skinfold, so as to sandwich the extended double layer of skin. A 15 mm full thickness circular layer is excised. The underlying muscle (M. cutaneous max.) and subcutaneous tissues are covered with a glass coverslip incorporated in one of the frames. After a recovery period of 2-3 days, prostate tissue and cancer cell spheroids are carefully placed in the chamber. Small circular Band Aids are applied on the backside of the chamber after surgery to prevent scratching. Before surgery, Buprenorphine (0.1 mg/kg) is given IP. After surgery Meloxicam is given in the drinking water for 4 days Meloxicam (5.0 mg/ml), is added at 35 μl per 100 ml of water to be medicated.
Mice are anesthetized with 7.3 mg ketamine hydrochloride and 2.3 mg xylazine/100 g body weight, i.p. A lateral incision across the scrotum is made and the testes are individually ligated and excised. The wound is cauterized. The incision is then sutured and sealed with Nexaband® acrylic.
Preparation of tumor spheroids: Liquid overlay plates were generated using 1% molecular biology grade agarose melted in cell culture medium and plated in round bottom 96 well plates at 50 ul/well. Tumor cells grown as pre-confluent monolayers were trypsinized and diluted to a final volume of 1,000,000 cells/ml. Viability was determined by Trypan blue. Cells were placed onto the cooled agarose (70 μl/well) and allowed to compact into spheroids for 24 hours. The spheroids were picked with a pipette and transferred into serum-free media for implantation in the chambers.
IntraVital Microscopy (IVM) can be used to visualize tumors in animals and analyze various aspects of cancer physiology such as tumor vascularization, cell migration and metastasis. An advantage of IVM includes the real-time analysis of dynamic processes with single-cell resolution. IntraVital microscopy offers the possibility to follow tumor growth in a non-invasive, non-destructive manner. The application of IVM can be limited to animal models that bear visually accessible tumors. Therefore, the dorsal skinfold chamber model described above can be compatible with IVM. Using IVM can permit a number of parameters to be measured in living animals and as a function of time, including tumor growth, angiogenesis, infiltration by immune cells, tumor cell migration, mitosis (cell-division) and apoptosis (programmed cell death), all in the context of the host and in real time.
Unless otherwise indicated, Compound I was administered by oral gavage in a sesame oil (Carrier A) formulation. Compound I was dissolved in DMSO then in oil at a concentration of 0.25 mg/ml (weight/volume) with a final DMSO concentration of 0.5% (vol/vol), and administered to mice at 1 mg/kg. In some experiments, Compound I dissolved in a mixture of poly-ethylene glycol/DMSO 30% (w/v) was administered via intra-peritoneal injection.
The efficacy of the formulation of Compound I in Carrier A for oral administration was compared to the previous formulation of Compound I in poly-ethylene glycol (PEG) for intra-peritoneal injection (i.p.). These experiments were performed using Intra Vital Microscopy (IVM) in a pseudo-orthotopic prostate chamber model in which minced prostate tissue is grafted in chambers surgically placed in the dorsal skinfold of mice, and allowed to vascularize. Small tumor cells spheroids were then placed on the prostate tissue, creating a biologically relevant prostatic environment. The tumor cells that express fluorescent H2B-GFP and can be detected in situ and in real-time through the microscopy window of the dorsal chamber.
Epithelial cell lines derived from the prostate tumor of a PTEN-null mouse were used. Mouse prostate cancer cells PTEN-P2 are heterozygous for PTEN deletion and do express protein PTEN.

## CC1=CC(=O)c2c(O)cccc2C1=O [Compound I, 5-hydroxy-2-methylnaphthalene-1,4-dione]
3 and 10 mg/kg/day in oil, oral, castrated mice
  Tumor regression at higher doses: no improvement over the dose of 1 mg/kg/day
Compound I administered orally in combination with surgical castration
  Combination efficacy: Yes
Compound I in Carrier A orally 1 mg/kg/day with degarelix
  Shrinkage of the tumors: approximately 50%
Compound I in Carrier A orally with abiraterone/prednisone
  Tumor size relative to the starting size: less than 60%
Compound I in Carrier A orally with bicalutamide
  Effect on tumor size: did not result in a reduction of initial tumor size
Compound I in Carrier A orally with dutasteride
  Shrinkage of the tumor size: approximately 30%
Compound I in Carrier A orally with enzalutamide
  Effect on tumor size: did not result in a reduction in tumor size
Compound I in Carrier A orally with orteronel
  Tumor size relative to the starting size: less than 60%
Compound I in PEG, i.p. 1 mg/kg/day, castrated mice, p<0.001
  Decrease of tumor sizes: 50%
Combination of bicalutamide with Compound I
  Effectiveness vs drug alone: no more effective than treatment with the drug alone
Combination of enzalutamide with Compound I
  Effectiveness vs drug alone: no more effective than treatment with the drug alone
Combination of leuprolide and the oral formulation of Compound I
  Effect on tumor size: caused the tumors to shrink
Combination of the oral formulation of Compound I and leuprolide
  Tumor flare vs leuprolide alone: shorter and of lesser amplitude
Combination with 2 mg/kg dutasteride
  Efficiency vs combination with surgical castration: nearly as efficient as the combination of Compound I with surgical castration
Combination with abiraterone/prednisone vs abiraterone/prednisone
  Efficiency vs chemical ADT by itself: more efficient
Combination with abiraterone/prednisone, comparator printed as combination of Compound I and abiraterone/prednisone
  Shrinkage vs comparator combination: more shrinkage of tumors
Combination with degarelix
  Shrinkage vs combination of Compound I and castration: more shrinkage of tumors
Combination with degarelix vs degarelix
  Efficiency vs chemical ADT by itself: more efficient
Combination with dutasteride at 2, 0.3, 0.1, 0.03 mg/kg
  Dose dependence of tumor regression: tumor regression proportionally to the dose of dutasteride
Combination with dutasteride vs dutasteride, p<0.001
  Efficiency vs chemical ADT by itself: more efficient
Combination with orteronel
  Shrinkage vs combination of Compound I and castration: more shrinkage of tumor size
Combination with orteronel vs orteronel
  Efficiency vs chemical ADT by itself: more efficient
Leuprolide plus Compound I orally 1 mg/kg/day, p=0.014 between treatments
  Maximum tumor size reached, relative to initial tumor size: 120%
Lower doses than 1 mg/kg/day (FIG. 3B), oral in Carrier A, castrated mice
  Tumor regression at lower doses: less efficient at causing tumor regression
mice, up to 10 mg/kg/day for 21 days, no changes in whole body weights or animal behavior
  Tolerability of oral administration: well tolerated
Oil formulation, oral, castrated mice
  Dose of optimal effect: 1 mg/kg/day
Oral 1 mg/kg/day in Carrier A, castrated mice
  Tumor regression, oral formulation versus i.p. formulation: as effectively as i.p. injection of 1 mg/kg Compound I in PEG
See Example 5
  Dose at which Compound I was maximally effective: 1 mg/kg
